# US5081112A, “Method for treating hyperlipidemia” (Otsuka Pharmaceutical Factory Inc., priority 1986, dated 1992)
# Where two headings read alike, the source gives them in different places.
# Columns and labels:
# [1] = system: plasma high density lipoprotein cholesterol (HDLC); assay: increasing rate of plasma high density lipoprotein cholesterol (HDLC) concentration; type: in vivo, male Wistar rats; conditions: 300 mg/kg/day oral for 2 days; rat; vs control
# Procedure: Increasing rate (%) of plasma high density lipoportein cholesterol (HDLC) concentration which is performed by a carboxamide compound of the general formula (I) of the present invention was conducted as follows.
# Seven-week-old male Wistar rats were used.
# The test compound was orally administered for 2 days at a daily dose of 300 mg/kg body weight to each of six (6) rats in test group. The dosing vehicle was 0.5% sodium carboxylmethylcellulose solution, and the dosing volume was 5 ml/kg body weight.
# Similar to the procedures taken to the rats in the test group, to each one of six (6) rats in control group was orally administered 0.5% sodium carboxymethylcelluose solution only.
# On day 2, after fasting for 20 hours, blood was drawn from the jagular sinus with a heparinized syringe. Plasma was obtained by centrifugation.
# Plasma HDLC was determined after precipitation of other lipid fraction with heparin and Ca^2+ by using HDL-C Kit-N (manufactured by Hihon Shoji Kabushiki Kaisha).
# Increasing rate (%) of plasma HDLC concentration performed by a test compound was calculated from the formula as follows: [formula]
# [2] = system: Triton WR-1339-induced hyperlipidemia in rat; assay: antilipotropic effect in Triton WR-1339-induced hyperlipidemia in rat; type: in vivo, Wistar-strain male rats; conditions: 50 mg/kg oral, vs control
# Text: Wistar-strain male rats of 5-9 week age were used as test animals. One test group consisting of six (6) rats.
# [a] is a determined value obtained from the control group, and
# [b] is a determined value obtained from the test group).
# [3] = system: Streptozotocin-induced diabetes in rat; assay: serum lipids lowering effect to Streptozotocin-induced diabetes in rat; type: in vivo, Wistar-strain male rats; conditions: 4 hours after 25 mg/kg oral, Streptozocin 100 mg/kg tail vein
# Procedure: Test for determining serum lipids lowering effect to Streptozotocin-induceddiabetes in rat
# Wistar-strain male rats of 7 week age were used as test animals. One test group consisting of six (6) rats. 100 Milligrams/kg of Streptozocin was administered to the tail vein of the test rat, then 4th day after the administration with Streptozocin, 25 mg/kg of each of the test compounds which was suspended in 0.5%-CMC-Na aqueous solution was orally administered to the rat. Similar to the test group, to each of six (6) rats in control group was administered with Streptozocin, and further orally administered with 0.5%-CMC-Na aqueous solution without containing each of the test compounds.
# 4 Hours after the administration of each of the test compounds, the blood sample was taken from each of the test rats, and serum triglycerids was measured by using a test reagent of Triglyceride G-Test Wako (manufacturedby Wako Pure Chemicals, Co., Ltd.).
# [4] = system: biosynthetic pathway of cholesterol; assay: inhibitory effect in biosynthetic pathway of cholesterol; type: biochemical; conditions: 10^-4 M; rat liver microsomes and soluble fraction; 90 min, 100 µM
# Procedure: Test for determining inhibitory effect in biosynthetic pathway of cholesterol
# Each one of the test compounds was added to rat liver microsomes fraction (containing 0.2 mg of protein) and soluble fraction (containing 2 mg of protein), then the volume of the mixture was adjusted to 100 microliters by adding 0.1 M-potassium phosphate buffer solution (pH 7.4), then this mixture was incubated at 37° C. for 10 minutes.
# After the incubation, the reaction was started by adding 200 microliters of a solution containing 1 mM ATP, 10 mM glucose-1-phosphate, 6 mM glutathione, 6 mM MgCl2, […], 0.25 mM […], 0.25 mM NADP, and 1 mM [1-^14 C] sodium acetate (3.0 mCi/mM).
# The whole mixture was incubated at 37° C. for 90 minutes, then the reaction was terminated by adding […] of 15%-KOH (a 95% ethanol solution), next 2 mg of cholesterol was added thereto, saponified at 75° C. for 1 hour, and cholesterol was extracted with petroleum ether, the extract was concentrated to dryness. To the residue thus obtained was added with 2.5 ml of a mixture of acetone-diethyl ether (1:1) and 2.5 ml of 1%-digitonin (a 50% ethanol solution), then this solution was allowed to stand for 1 hour in cooling condition by using ice-water to precipitate cholesterol. The precipitate was washed with acetone, a mixture of acetonediethyl ether (1:1) and diethyl ether in this order, then the radioactivity of the residue was measured by using a liquid scintillation counter.
# (§1) Control test was also conducted by the procedures similar to those mentioned above in the test group, except that each one of the test compounds was not used.
# Inhibitory effect in biosynthetic pathway of cholesterol performed by each one of the test compounds was calculated, in terms of inhibitory ratio (%), from the formula on the basis of the radioactivity of the control group as follows: [formula] (wherein
# [c] is a radioactivity of the control group, and
# [d] is a radio activity of the test group).
# [5] = system: acyl-CoA:cholesterol acyltransferase (ACAT); assay: inhibitory effect in the enzymatic activities of acyl-CoA:cholesterol acyltransferase (ACAT); type: biochemical; conditions: rat liver microsomes, 2 min; for Inhibitory effect to ACAT (inhibitory ratio), Table 5: head prints 10^14 M
# Procedure: Test for determining inhibitory effect in the enzymatic activities of acyl-CoA:cholesterol acyltranferase (ACAT)
# 50 Microliters of each one of the test compounds was added to rat liver microsomes fraction (containing 0.4 mg of protein) of which volume was adjusted to 150 microliters by adding 0.15 M-potassium phosphate buffer solution (pH 7.4), then the mixture was incubated at 37° C. for 10 minutes. After the incubation, the reaction was started by adding 50 microliters of 0.15 M-potassium phosphate buffer solution (pH 7.4) containing 18 nM [1-^14 C] oleoyl-CoA (10 mCi/mM) and 0.6 mg BSA (bovine serum albumin) at 37° C. for 2 minutes. The reaction was terminated by adding 1 ml of ethanol, then 4 ml of n-hexane was added and shaken, then the n-hexane layer (upper layer) was concentrated to the volume of 3 ml under nitrogen gas stream, thus obtained cholesteryl oleate was isolated by means of a silica gel thin chromatography [developing solvent=petroleum ether: diethyl ether (95:5)] and the radioactivity was measured by using a liquid scintillation counter.
# as §1
# Inhibitory effect in the enzymatic activities of acyl-CoA:cholesterol acyltransferase (ACAT) performed by each one of the test compounds was calculated, in terms of inhibitory ratio (%), from the formula on the basis of the radioactivity of the control group as follows: [formula] (wherein
# [e] is a radioactivity of the control group, and
# [f] is a radioactivity of the test group).
# [6] = Acute toxicity test; type: in vivo, Wistar-strain male rats; conditions: in vivo; oral; rat
# Text: (§2) Each of carboxamide compounds represented by the formula (1), which is the active ingredient contained in pharmaceutical composition according to the present invention, was suspended in 5%-CMC-Na aqueous solution and administered orally to Wistar-strain male rats of 7 week age (one test group consisting of 6 rats) so as to observe the acute toxicity of each of the carboxamide compounds.
# (§3) Thus, LD50 value of Test compound No. 2 is considered to higher than […]. Thus, carboxamide compounds represented by the formula (1) according to the present invention can be said as quite safety compounds.
# [7] = system: Wistar-strain male rats; assay: Acute toxicity test; type: in vivo; conditions: 2 g/kg oral; rat
# Text: as §2, §3
# [8] = large amount for a long period; animal test; cited from earlier work
# [9] = 24 hours after Triton WR-1339 (400 mg/kg, tail vein), read-out: lowering ratio of serum triglycerides, 24 hours after Triton WR-1339
# [10] = 24 hours after Triton WR-1339 (400 mg/kg, tail vein), read-out: lowering ratio of total serum cholesterol, 24 hours after Triton WR-1339
# [11] = 48 hours after Triton WR-1339 (400 mg/kg, tail vein), read-out: lowering ratio of serum triglycerides, 48 hours after Triton WR-1339
# [12] = 48 hours after Triton WR-1339 (400 mg/kg, tail vein), read-out: lowering ratio of total serum cholesterol, 48 hours after Triton WR-1339
# [13] = 24 hours after Triton WR-1339 (400 mg/kg, tail vein)
# [14] = 48 hours after Triton WR-1339 (400 mg/kg, tail vein)
molecule,measurement,setting,value
CCOP(=O)(Cc1ccc(C(=O)Nc2ccc(Br)c(C#N)c2)cc1)OCC [compound 76],Increasing rate (%) of high density lipids concentration in the serum (plasma HDLC),[1],111%
CCOP(=O)(Cc1ccc(C(=O)Nc2ccc(Br)cc2)cc1)OCC [compound 8],inhibition in vivo at 50 mg/kg,[2]; [9],86.8%
same,inhibition in vivo at 50 mg/kg,[2]; [10],52.2%
same,inhibition in vivo at 50 mg/kg,[2]; [11],92.5%
same,inhibition in vivo at 50 mg/kg,[2]; [12],63.6%
same,Serum triglyceride,[3],471 mg/dL
CCOP(=O)(Cc1ccc(C(=O)Nc2ccc(C#N)cc2Br)cc1)OCC [compound 75],Increasing rate (%) of high density lipids concentration in the serum (plasma HDLC),[1],222%
CCOP(=O)(Cc1ccc(C(=O)Nc2ccc(C#N)cc2Cl)cc1)OCC [compound 73],Increasing rate (%) of high density lipids concentration in the serum (plasma HDLC),[1],187%
"CCC(C)(Oc1ccc(C2(c3ccc(OC(C)(CC)C(=O)O)cc3)CCCCC2)cc1)C(=O)O (stereo not shown) [Clinofibrate, reference compound]",inhibition in vivo at 50 mg/kg,[2]; [9],13.6%
same,inhibition in vivo at 50 mg/kg,[2]; [10],9.8%
same,inhibition in vivo at 50 mg/kg,[2]; [11],1.1%
same,inhibition in vivo at 50 mg/kg,[2]; [12],1.9%
same,Serum triglyceride,[3],"2,067 mg/dl"
CCOP(=O)(Cc1ccc(C(=O)Nc2ccc(C#N)cc2I)cc1)OCC [compound 77],Increasing rate (%) of high density lipids concentration in the serum (plasma HDLC),[1],184%
4-diethoxyphosphinoylmethyl-N-(4-bromo-2-cyanophenyl)benzamide [Test compound No. 71],"lowering ratio of serum triglycerides, 24 hours after Triton WR-1339",[2]; [13],85.3%
same,"lowering ratio of total serum cholesterol, 24 hours after Triton WR-1339",[2]; [13],51.6%
same,"lowering ratio of serum triglycerides, 48 hours after Triton WR-1339",[2]; [14],95.9%
same,"lowering ratio of total serum cholesterol, 48 hours after Triton WR-1339",[2]; [14],67.9%
same,Inhibitory ratio of cholesterol biosynthesis,[4],56.6%
same,"Inhibitory effect to ACAT (inhibitory ratio), Table 5",[5],79.2%
CCOP(=O)(Cc1ccc(C(=O)Nc2ccc(I)cc2C#N)cc1)OCC [compound 74],Increasing rate (%) of high density lipids concentration in the serum (plasma HDLC),[1],187%
CCOP(=O)(Cc1ccc(C(=O)N(Cc2ccccc2)c2ccc([N+](=O)[O-])cc2)cc1)OCC [compound 10],inhibition in vivo at 50 mg/kg,[2]; [9],26.9%
same,inhibition in vivo at 50 mg/kg,[2]; [10],0%
same,inhibition in vivo at 50 mg/kg,[2]; [11],68.7%
same,inhibition in vivo at 50 mg/kg,[2]; [12],16.1%
same,Inhibitory ratio of cholesterol biosynthesis,[4],75.6%
same,Inhibitory effect to ACAT (inhibitory ratio),"[5]; 10^-4 M, 100 µM",69.4%
CC(C)OP(=O)(Cc1ccc(C(=O)NCCc2ccccc2)cc1)OC(C)C [compound 11],inhibition in vivo at 50 mg/kg,[2]; [9],0%
same,inhibition in vivo at 50 mg/kg,[2]; [10],13.5%
same,inhibition in vivo at 50 mg/kg,[2]; [11],56.8%
same,inhibition in vivo at 50 mg/kg,[2]; [12],32.6%
same,Inhibitory ratio of cholesterol biosynthesis,[4],67.4%
same,"Inhibitory effect to ACAT (inhibitory ratio), Table 5",[5],83.3%
CCOP(=O)(Cc1ccc(C(=O)Nc2ccc(Cl)cc2C#N)cc1)OCC [compound 72],Increasing rate (%) of high density lipids concentration in the serum (plasma HDLC),[1],196%
CCOP(=O)(Cc1ccc(C(=O)Nc2ccc(Br)cc2C#N)cc1)OCC [compound 71],Increasing rate (%) of high density lipids concentration in the serum (plasma HDLC),[1],193%
CCOP(=O)(Cc1ccc(C(=O)N(Cc2ccccc2)c2ccc(Cl)cc2)cc1)OCC [Test compound No. 2],LD50,[6],> 2000 mg/kg
same,lethal cases,[7],not any lathal case at all
CCOC(=O)C(C)(C)Oc1ccc(Cl)cc1 [Clofibrate],formation of hepatic tumor,[8],the formation of hepatic tumor was observed
CCOP(=O)(Cc1ccc(C(=O)N(c2ccccc2)C(C)C)cc1)OCC [compound 32],Inhibitory ratio of cholesterol biosynthesis,[4],36.4%
same,"Inhibitory effect to ACAT (inhibitory ratio), Table 5",[5],20.1%
